The target in data set [1] is T1, PR (progesterone receptor) (Homo sapiens, UniProt P06401).
T1 sequence (P06401 1-933): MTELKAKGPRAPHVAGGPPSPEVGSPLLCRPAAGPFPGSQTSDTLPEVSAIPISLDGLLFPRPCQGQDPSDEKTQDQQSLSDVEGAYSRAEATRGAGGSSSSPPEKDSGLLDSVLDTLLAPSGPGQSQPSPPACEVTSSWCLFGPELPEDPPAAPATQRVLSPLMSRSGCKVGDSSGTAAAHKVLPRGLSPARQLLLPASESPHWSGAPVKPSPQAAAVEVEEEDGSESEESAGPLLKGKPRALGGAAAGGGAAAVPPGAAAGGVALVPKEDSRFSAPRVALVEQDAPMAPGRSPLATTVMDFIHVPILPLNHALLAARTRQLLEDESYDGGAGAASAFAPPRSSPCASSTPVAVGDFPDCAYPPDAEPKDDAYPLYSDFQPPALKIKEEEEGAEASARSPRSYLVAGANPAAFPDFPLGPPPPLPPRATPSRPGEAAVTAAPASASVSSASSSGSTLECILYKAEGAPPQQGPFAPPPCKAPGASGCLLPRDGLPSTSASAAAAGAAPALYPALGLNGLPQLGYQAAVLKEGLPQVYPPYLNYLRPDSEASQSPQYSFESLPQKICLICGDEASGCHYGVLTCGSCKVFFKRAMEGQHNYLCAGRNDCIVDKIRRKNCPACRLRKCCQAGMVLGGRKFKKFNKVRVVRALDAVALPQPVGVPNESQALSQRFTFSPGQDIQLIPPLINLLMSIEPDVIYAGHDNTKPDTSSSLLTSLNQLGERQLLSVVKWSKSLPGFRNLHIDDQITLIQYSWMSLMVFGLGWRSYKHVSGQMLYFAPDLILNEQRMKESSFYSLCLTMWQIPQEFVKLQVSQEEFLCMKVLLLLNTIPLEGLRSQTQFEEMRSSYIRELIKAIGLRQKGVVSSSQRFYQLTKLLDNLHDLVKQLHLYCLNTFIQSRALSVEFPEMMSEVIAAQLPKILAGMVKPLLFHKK
Put plainly: Relative binding activity (RBA) at PR, progesterone = 100%. Conditions: by Kaufmann.

The target in data set [2] is T2, progesterone receptor (PR) (Oryctolagus cuniculus, UniProt P06186).
T2 construct: effects of PR-modulators in the uterus of estrogen primed immature rabbits (McPhail test); from tissue; host or cells: uterus (endometrium) of estradiol-primed juvenile rabbits, in vivo
T2 sequence (P06186 1-930): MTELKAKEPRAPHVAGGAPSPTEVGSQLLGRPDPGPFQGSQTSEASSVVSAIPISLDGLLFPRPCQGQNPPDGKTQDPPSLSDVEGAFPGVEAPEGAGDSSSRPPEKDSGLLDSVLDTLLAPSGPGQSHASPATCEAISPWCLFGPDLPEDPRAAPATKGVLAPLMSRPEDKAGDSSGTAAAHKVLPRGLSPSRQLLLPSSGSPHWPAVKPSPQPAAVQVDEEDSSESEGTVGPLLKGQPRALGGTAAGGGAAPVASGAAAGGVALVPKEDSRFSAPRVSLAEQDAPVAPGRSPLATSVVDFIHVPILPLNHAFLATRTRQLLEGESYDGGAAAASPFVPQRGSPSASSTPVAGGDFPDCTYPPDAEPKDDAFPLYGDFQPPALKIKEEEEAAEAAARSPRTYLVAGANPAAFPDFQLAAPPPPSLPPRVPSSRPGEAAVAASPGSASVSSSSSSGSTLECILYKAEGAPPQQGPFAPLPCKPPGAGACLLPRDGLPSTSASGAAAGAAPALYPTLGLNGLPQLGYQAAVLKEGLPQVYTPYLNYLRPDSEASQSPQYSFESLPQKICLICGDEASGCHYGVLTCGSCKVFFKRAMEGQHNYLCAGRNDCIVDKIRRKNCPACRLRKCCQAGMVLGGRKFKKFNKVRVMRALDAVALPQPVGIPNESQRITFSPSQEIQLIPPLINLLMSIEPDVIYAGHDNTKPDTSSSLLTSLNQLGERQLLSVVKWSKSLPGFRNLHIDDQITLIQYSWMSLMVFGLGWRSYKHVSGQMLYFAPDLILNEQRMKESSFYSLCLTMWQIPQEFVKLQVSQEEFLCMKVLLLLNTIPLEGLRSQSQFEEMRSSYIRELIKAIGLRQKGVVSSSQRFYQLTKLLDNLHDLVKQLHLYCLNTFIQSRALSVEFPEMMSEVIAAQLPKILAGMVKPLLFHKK
Nature of the data set: McPhail test, PR agonistic (progestagenic) activity in estradiol-primed juvenile rabbits. It counts as in vivo, rabbit. The following applies: for maximum progestagenic effect relative to progesterone: dose range 0.003-100 mg/rabbit s.c. As for the experimental part:
In the classical bioassay, the McPhail test, assessing progestagenic and antiprogestagenic effects in rabbits (Selye H., Textbook of Endocrinology, 1947, pp. 345-346), progesterone produces a maximum McPhail score of 4 (by definition).
The PR antagonistic and agonistic properties of mesoprogestins were assessed in estrogen-primed rabbits in the McPhail test according to Selye (Textbook of Endocrinology, 1947, pp. 345-346).

Data set [3] deals with endometriosis. Nature of the data set: Treatment of endometriosis in women. The following applies: women with endometriosis, 3-6 months, 5-50 mg. It counts as in vivo, human.
The subject of data set [4] is endometriosis. Nature of the data set: Sequential treatment of endometriosis with an LHRH agonist and J867. It counts as in vivo, human. As for the experimental part: Women with endometriosis are treated for 2-3 months with an LHRH agonist such as Lupron. After the cessation of LHRH-agonist therapy women are treated for the next 3-6 months with J 867 in order to avoid osteoprorosis induced by prolonged treatment with LHRH agonist. During treatment with 5-50 mg J 867 the therapeutic effects of the LHRH-agonist are maintained.

Data set [5] relates to uterine fibroids. Put plainly: Treatment of uterine fibroids (Example 5). The class given is in vivo, human. Conditions: 3-6 months, 5-50 mg.
For data set [6] the following is noted: as described in DE 43 32 283 / DE 43 32 284; cited from earlier work.
For data set [7] the following is noted: as described in DE 43 32 283 / DE 43 32 284; cited from earlier work. The source holds these as a separate data set.
Data set [8] relates to cyclic guinea pigs. The following applies: cited from earlier work.
Setting [9] is: 4 days s.c. treatment, absence of progesterone.

Turning to `CCSC(=O)O/N=C/c1ccc([C@H]2C[C@@]3(C)[C@@H](CC[C@]3(COC)OC)[C@@H]3CCC4=CC(=O)CCC4=C32)cc1` [J1042, 4-[17β-Methoxy-17α-(methoxymethyl)-3-oxoestra-4,9-dien-11β-yl]benzaldehyd-(1E)-[O-(ethylthio)carbonyl]oxim], the “RBA (%) PR” value in data set [1] was determined as 164%. Moreover, the “maximum progestagenic effect relative to progesterone” value in data set [2] is “Neither mesoprogestin tested (J1042, J867, J956) reached the maximum effect of progesterone”.

Regarding `CCNC(=O)O/N=C/c1ccc([C@H]2C[C@@]3(C)[C@@H](CC[C@]3(COC)OC)[C@@H]3CCC4=CC(=O)CCC4=C32)cc1` [J956, 4-[17β-Methoxy-17α-(methoxymethyl)-3-oxoestra-4,9-dien-11β-yl]benzaldehyd-(1E)-[O-(ethylamino)carbonyl]oxim], in data set [1], the “RBA (%) PR” value was 345%. Also, in data set [2] (setting [9]), the “dose of maximum effect” value is 0.3-1 mg/rabbit and the “maximum effect, McPhail score” value is 1.5 McPhail score. The “shape of dose response in McPhail test” value in data set [2] (absence of progesterone) was “biphasic response”. In data set [2], the “maximum progestagenic effect relative to progesterone” value is reported as “Neither mesoprogestin tested (J1042, J867, J956) reached the maximum effect of progesterone”.

For the compound `COC[C@]1(OC)CC[C@H]2[C@@H]3CCC4=CC(=O)CCC4=C3[C@@H](c3ccc(/C=N/O)cc3)C[C@@]21C` [J867, 4-[17β-Methoxy-17α-(methoxymethyl)-3-oxoestra-4,9-dien-11β-yl]benzaldehyd-(1E)-oxim], in data set [1], the “RBA (%) PR” value was found to be 302%. Further, the “maximum progestagenic effect relative to progesterone” value in data set [2] is on record as “Neither mesoprogestin tested (J1042, J867, J956) reached the maximum effect of progesterone”. Also, the “pelvic pain during treatment” value in data set [3] and in data set [5] was “reduction of pelvic pain was observed” each time. Moreover, the “therapeutic effects of the LHRH-agonist during following treatment” value in data set [4] (5-50 mg for 3-6 months after 2-3 months LHRH agonist) is reported as “maintained”. In addition, in data set [4] (women with endometriosis), the estrogen deficiency result is “does not produce estrogen deficiency”. Besides, in data set [6], the antiprogestagenic activity result was “strong”. In addition, the “antiglucocorticoid activity compared to RU 486” value in data set [7] was “markedly reduced”. Moreover, the uterine weights entry in data set [8] was “reduced uterine weights”.
